Data as given in PubChem BioAssay AID192 (DTP/NCI, 2004).
Several values for one entry are separate records, joined by “and”; a condition that tells them apart may be missing. Identical values can stand only once. Toxic doses and inconclusive results are not listed.

System: BDF1 mice, B16 melanoma ip, median survival T/C
Test: NCI In Vivo Anticancer Drug Screen. Data for tumor model B16 Melanoma (intraperitoneal) in B6D2F1 (BDF1) mice
Conditions: endpoint: median survival time, higher = longer survival
Method in brief: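 Survival or tumor size is measured after treatment of tumor-bearing mice and normalised to the vehicle-treated control group.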

[1] = dose: 100.0 mg/kg/injection, schedule: Q01DX009 (ip), vehicle: Klucel (hydroxypropylcellulose) (HPC)
[2] = dose: 200.0 mg/kg/injection, schedule: Q01DX009 (ip), vehicle: Klucel (hydroxypropylcellulose) (HPC)
[3] = dose: 12.5 mg/kg/injection, schedule: Q01DX009 (ip), vehicle: Klucel (hydroxypropylcellulose) (HPC)
[4] = dose: 50.0 mg/kg/injection, schedule: Q01DX009 (ip), vehicle: Klucel (hydroxypropylcellulose) (HPC)
[5] = dose: 50.0 mg/kg/injection, schedule: Q01DX009 (ip), vehicle: saline with Tween-80
[6] = dose: 100.0 mg/kg/injection, schedule: Q01DX009 (ip), vehicle: saline with Tween-80
[7] = dose: 400.0 mg/kg/injection, schedule: Q01DX009 (ip), vehicle: saline with Tween-80
[8] = dose: 1.56 mg/kg/injection, schedule: Q01DX009 (ip), vehicle: saline
[9] = dose: 3.12 mg/kg/injection, schedule: Q01DX009 (ip), vehicle: saline
[10] = dose: 6.25 mg/kg/injection, schedule: Q01DX009 (ip), vehicle: saline
[11] = dose: 200.0 mg/kg/injection, schedule: Q01DX009 (ip), vehicle: saline
[12] = dose: 50.0 mg/kg/injection, schedule: Q01DX009 (ip), vehicle: saline
[13] = dose: 100.0 mg/kg/injection, schedule: Q01DX009 (ip), vehicle: saline
[14] = dose: 200.0 mg/kg/injection, schedule: Q01DX009 (ip), vehicle: saline with Tween-80

Compound: Cc1ccc(Nc2ccc([N+](=O)[O-])cc2[N+](=O)[O-])c(C)c1
- T/C [1]: 93 % of control
- T/C [2]: 98 % of control
- T/C (dose: 400.0 mg/kg/injection, schedule: Q01DX009 (ip), vehicle: Klucel (hydroxypropylcellulose) (HPC)): 97 % of control

Compound: O=C(OC1C(O)OC2COC(=O)c3cc(O)c(O)c(O)c3-c3c(cc(O)c(O)c3O)C(=O)OC2C1O)c1cc(O)c(O)c(O)c1 (centres undefined)
- T/C (dose: 3.75 mg/kg/injection, schedule: Q01DX009 (ip), vehicle: saline): 99 % of control
- T/C (dose: 7.5 mg/kg/injection, schedule: Q01DX009 (ip), vehicle: saline): 112 % of control

Compound: CCCC(=O)OCc1cc(=O)n(C)c2c3c4c(cc12)c(C)cc(=O)n4CO3
- T/C (dose: 3.12 mg/kg/injection, schedule: Q01DX009 (ip), vehicle: Klucel (hydroxypropylcellulose) (HPC)): 106 % of control
- T/C (dose: 6.25 mg/kg/injection, schedule: Q01DX009 (ip), vehicle: Klucel (hydroxypropylcellulose) (HPC)): 101 % of control and 110 % of control
- T/C [3]: 120 % of control
- T/C [4]: 153 % of control

Compound: C=C1C(C)C2C(Cc3ccccc3)NC(=O)C23OC(=O)/C=C\CC(=O)CCC(C)C/C=C/C3C1O (centres undefined)
- T/C (dose: 2.5 mg/kg/injection, schedule: Q01DX009 (ip), vehicle: Klucel (hydroxypropylcellulose) (HPC)): 94 % of control

Compound: CCOc1ncc([N+](=O)[O-])c(OCC)n1
- T/C [5]: 104 % of control
- T/C [6]: 100 % of control
- T/C [7]: 95 % of control

Compound: Cc1ccc(C#N)s1
- T/C (dose: 3.12 mg/kg/injection, schedule: Q01DX009 (ip), vehicle: other): 104 % of control
- T/C (dose: 6.25 mg/kg/injection, schedule: Q01DX009 (ip), vehicle: other): 109 % of control
- T/C (dose: 12.5 mg/kg/injection, schedule: Q01DX009 (ip), vehicle: other): 101 % of control
- T/C (dose: 25.0 mg/kg/injection, schedule: Q01DX009 (ip), vehicle: other): 108 % of control

Compound: CCN(CC)[P+](c1ccccc1O)(N(CC)CC)N(CC)CC
- T/C [8]: 100 % of control
- T/C [9]: 105 % of control
- T/C [10]: 107 % of control and 114 % of control

Compound: CC1=CC(O)C(O)C2(C)C1CC(=O)C13COC4OC(CC1C4=O)C(O)C32 (centres undefined)
- T/C (dose: 0.4 mg/kg/injection, schedule: Q01DX009 (ip), vehicle: saline with Tween-80): 106 % of control
- T/C (dose: 0.8 mg/kg/injection, schedule: Q01DX009 (ip), vehicle: saline with Tween-80): 110 % of control
- T/C (dose: 1.6 mg/kg/injection, schedule: Q01DX009 (ip), vehicle: saline with Tween-80): 113 % of control
- T/C (dose: 3.2 mg/kg/injection, schedule: Q01DX009 (ip), vehicle: saline with Tween-80): 110 % of control
- T/C (dose: 5.0 mg/kg/injection, schedule: Q01DX009 (ip), vehicle: saline with Tween-80): 90 % of control
- T/C (dose: 10.0 mg/kg/injection, schedule: Q01DX009 (ip), vehicle: saline with Tween-80): 91 % of control

Compound: N#CCCN(C(=O)COc1ccc(Cl)cc1Cl)C1CCCCC1
- T/C [3]: 99 % of control
- T/C (dose: 25.0 mg/kg/injection, schedule: Q01DX009 (ip), vehicle: Klucel (hydroxypropylcellulose) (HPC)): 103 % of control
- T/C [4]: 98 % of control

Compound: CCCCN(CCCC)CCCC#N
- T/C [11]: 92 % of control

Compound: CCCCNc1ccc(Nc2ccccc2)cc1
- T/C (dose: 25.0 mg/kg/injection, schedule: Q01DX009 (ip), vehicle: saline + alcohol): 103 % of control
- T/C (dose: 50.0 mg/kg/injection, schedule: Q01DX009 (ip), vehicle: saline + alcohol): 104 % of control

Compound: O=C(Nc1nccs1)C(F)(F)F
- T/C [12]: 98 % of control
- T/C [13]: 106 % of control
- T/C [11]: 103 % of control
- T/C (dose: 400.0 mg/kg/injection, schedule: Q01DX009 (ip), vehicle: saline): 97 % of control

Compound: COc1cc([C@@H]2c3cc4c(cc3C[C@H]3COC(=O)[C@@H]32)OCO4)cc(OC)c1OC
- T/C (dose: 5.0 mg/kg/injection, schedule: Q01DX009 (ip), vehicle: saline): 107 % of control
- T/C (dose: 10.0 mg/kg/injection, schedule: Q01DX009 (ip), vehicle: saline): 109 % of control

Compound: CCc1ccccc1NC(=O)Nc1ccccc1
- T/C [1]: 90 % of control
- T/C (dose: 100.0 mg/kg/injection, schedule: Q04DX003 (ip), vehicle: Klucel (hydroxypropylcellulose) (HPC)): 100 % of control
- T/C [2]: 90 % of control
- T/C (dose: 200.0 mg/kg/injection, schedule: Q04DX003 (ip), vehicle: Klucel (hydroxypropylcellulose) (HPC)): 100 % of control
- T/C (dose: 400.0 mg/kg/injection, schedule: Q04DX003 (ip), vehicle: Klucel (hydroxypropylcellulose) (HPC)): 92 % of control

Compound: C=CC(=O)N1CN(C(=O)C=C)CN(C(=O)C=C)C1
- T/C (dose: 0.78 mg/kg/injection, schedule: Q01DX009 (ip), vehicle: saline with Tween-80): 110 % of control
- T/C (dose: 1.56 mg/kg/injection, schedule: Q01DX009 (ip), vehicle: saline with Tween-80): 114 % of control
- T/C (dose: 3.12 mg/kg/injection, schedule: Q01DX009 (ip), vehicle: saline with Tween-80): 116 % of control

Compound: C[C@]12CCC(=O)C=C1CC[C@@H]1[C@@H]2C(=O)C[C@@]2(C)[C@H]1CC[C@]2(O)C(=O)CO
- T/C (dose: 40.0 mg/kg/injection, schedule: Q02DX009 (ip), vehicle: Klucel (hydroxypropylcellulose) (HPC)): 100 % of control
- T/C (dose: 80.0 mg/kg/injection, schedule: Q02DX009 (ip), vehicle: Klucel (hydroxypropylcellulose) (HPC)): 112 % of control
- T/C (dose: 160.0 mg/kg/injection, schedule: Q02DX009 (ip), vehicle: Klucel (hydroxypropylcellulose) (HPC)): 97 % of control
- T/C (dose: 640.0 mg/kg/injection, schedule: Q02DX009 (ip), vehicle: Klucel (hydroxypropylcellulose) (HPC)): 97 % of control

Compound: O=C1NC(=O)C(Cc2ccccc2)(c2ccccc2)N1 (centres undefined)
- T/C [5]: 105 % of control
- T/C [6]: 102 % of control

Compound: CC(C)C(=O)[O][Sn]([CH3])([CH3])[CH3]
- T/C (dose: 0.19 mg/kg/injection, schedule: Q01DX009 (ip), vehicle: saline): 107 % of control
- T/C (dose: 0.38 mg/kg/injection, schedule: Q01DX009 (ip), vehicle: saline): 105 % of control
- T/C (dose: 0.75 mg/kg/injection, schedule: Q01DX009 (ip), vehicle: saline): 100 % of control

Compound: NC1=NCN(C2OC(CO)C(O)C2O)C(=O)N1 (centres undefined)
- T/C [8]: 92 % of control and 110 % of control
- T/C [9]: 96 % of control
- T/C (dose: 3.12 mg/kg/injection, schedule: Q01DX009 (ip), vehicle: suspension in saline): 93 % of control
- T/C [10]: 94 % of control and 110 % of control
- T/C (dose: 6.25 mg/kg/injection, schedule: Q01DX009 (ip), vehicle: suspension in saline): 110 % of control
- T/C (dose: 12.5 mg/kg/injection, schedule: Q01DX009 (ip), vehicle: saline): 110 % of control
- T/C (dose: 12.5 mg/kg/injection, schedule: Q01DX009 (ip), vehicle: suspension in saline): 110 % of control
- T/C (dose: 25.0 mg/kg/injection, schedule: Q01DX009 (ip), vehicle: saline): 94 % of control and 111 % of control
- T/C (dose: 25.0 mg/kg/injection, schedule: Q01DX009 (ip), vehicle: suspension in saline): 89 % of control
- T/C [12]: 111 % of control
- T/C [11]: 111 % of control and 119 % of control

Compound: Nc1nc(N)nc(-c2ccc([N+](=O)[O-])o2)n1
- T/C [6]: 103 % of control
- T/C [14]: 97 % of control
- T/C [7]: 90 % of control

Compound: CN(C)CCC[N+]1([O-])c2ccccc2CCc2ccccc21
- T/C (dose: 4.68 mg/kg/injection, schedule: Q01DX009 (ip), vehicle: saline): 97 % of control
- T/C (dose: 9.37 mg/kg/injection, schedule: Q01DX009 (ip), vehicle: saline): 118 % of control
- T/C (dose: 18.75 mg/kg/injection, schedule: Q01DX009 (ip), vehicle: saline): 95 % of control
- T/C (dose: 37.5 mg/kg/injection, schedule: Q01DX009 (ip), vehicle: saline): 100 % of control
- T/C (dose: 75.0 mg/kg/injection, schedule: Q04DX003 (ip), vehicle: saline): 96 % of control

Compound: CC(C)CC(Br)C(=O)NCC(=O)O (centres undefined)
- T/C (dose: 25.0 mg/kg/injection, schedule: Q01DX009 (ip), vehicle: saline with Tween-80): 95 % of control
- T/C [5]: 95 % of control

Compound: CC(=O)Nc1cc(F)c([N+](=O)[O-])cc1[N+](=O)[O-]
- T/C (dose: 0.63 mg/kg/injection, schedule: Q01DX009 (ip), vehicle: saline with Tween-80): 104 % of control
- T/C (dose: 1.25 mg/kg/injection, schedule: Q01DX009 (ip), vehicle: saline with Tween-80): 90 % of control
- T/C (dose: 2.5 mg/kg/injection, schedule: Q01DX009 (ip), vehicle: saline with Tween-80): 104 % of control

Compound: C#CC[N+]12CN3CN(CN(C3)C1)C2
- T/C [12]: 104 % of control
- T/C [13]: 100 % of control
- T/C [11]: 107 % of control

Compound: Cc1c(C)c2c(c(C)c1O)CCC(C)(CCCC(C)CCCC(C)CCCC(C)C)O2 (centres undefined)
- T/C [6]: 95 % of control
- T/C [14]: 90 % of control
